From article PMC4604124, “In Vitro Characterization of the Pharmacological Properties of the Anti-Cancer Chelator, Bp4eT, and Its Phase I Metabolites” (PLoS ONE, 2015)
Values joined by “and” are separate entries in the source; they are usually repeats but may differ in a detail not shown here. Equal values may be shown once.

What was measured:
[1] = Ascorbate oxidation assay (redox activity of iron complexes); assay type: biochemical; details: sheet IBE 3;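 on %Fe 30min (ascorbate oxidation, Fe 100%): IBE 3 means excess free chelator over iron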;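 on Change of absorbance, odečet 0 (time 0 subtracted), čas 10, průměr: IBE 3 means excess free chelator over 10 µM FeCl3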;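 on Change of absorbance, odečet 0 (time 0 subtracted), čas 10: IBE 3 means excess free chelator over 10 µM FeCl3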;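 on Change of absorbance, odečet 0 (time 0 subtracted), čas 20, průměr: 100 µM ascorbate with 10 µM FeCl3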;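 on Change of absorbance, odečet 0 (time 0 subtracted), čas 20: 100 µM ascorbate with 10 µM FeCl3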;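 on Change of absorbance, odečet 0 (time 0 subtracted), čas 30, průměr: 100 µM ascorbate with 10 µM FeCl3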;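 on Change of absorbance, odečet 0 (time 0 subtracted), čas 30: 100 µM ascorbate with 10 µM FeCl3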
[2] = system: HCT116 human colorectal carcinoma cells; assay: MTT cytotoxicity assay, HCT116 cells; assay type: cell-based; details: for IC50: MTT
Outline: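 Cells seeded 24 h at 37 °C (MCF-7 5,000, HCT116 and A549 2,000, H9c2 10,000 per well; H9c2 then 24 h in serum- and pyruvate-free DMEM), then exposed to Bp4eT or metabolites 72 h at 37 °C with 0.1% DMSO. MTT read at 570 nm minus 690 nm; viability as % of untreated control, IC50 derived.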

[3] = Viability (viabilita) used to normalise caspase activity; assay type: cell-based, human; details: human, MCF-7 cells, kontrola = 100;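 further: compound tested at 100 nM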
Excerpt: Supplement pone.0139929.s002.zip/caspases activity.xlsx, sheet "results_viability"

[4] = system: caspase 9; assay: Caspase activity, luminescent kit, caspase 9; assay type: cell-based, human; details: for Caspase 9 activity, % of the control: 100 nM, MCF-7, corrected for viability; for kaspáza 9, průměry (means of raw signal): mean of 4 experiments; for kaspáza 9, raw signal / kaspáza 9, signal / viabilita: individual experiments by date

With `CCNC(=S)NN=C(c1ccccc1)c1ccccn1` [Bp4eT, 2-benzoylpyridine 4-ethyl-3-thiosemicarbazone] the “%Fe 30min (ascorbate oxidation, Fe 100%)” value ([1]; 30min, Fe alone = 100%, single replicates) was 323.8% and 304.1% and 296.1% and 279.4% and 257.4% and 253.6% and 291.2% and 261% and 240.7%, the “Change of absorbance, odečet 0 (time 0 subtracted), čas 10, průměr” value ([1]; time 10 minus time 0, mean (průměr)) was -0.09469 and the “Change of absorbance, odečet 0 (time 0 subtracted), čas 10” value ([1]; time 10 minus time 0, single replicates) was -0.1148 and -0.1115 and -0.1009 and -0.09722 and -0.09232 and -0.09642 and -0.1047 and -0.06955 and -0.06465. The “Change of absorbance, odečet 0 (time 0 subtracted), čas 20, průměr” value ([1]; time 20 minus time 0, mean (průměr)) was -0.1775, the “Change of absorbance, odečet 0 (time 0 subtracted), čas 20” value ([1]; time 20 minus time 0, single replicates) was -0.2173 and -0.2064 and -0.1913 and -0.1735 and -0.1668 and -0.1578 and -0.1895 and -0.1498 and -0.1449 and the “Change of absorbance, odečet 0 (time 0 subtracted), čas 30, průměr” value ([1]; time 30 minus time 0, mean (průměr)) was -0.2575. The “Change of absorbance, odečet 0 (time 0 subtracted), čas 30” value ([1]; time 30 minus time 0, single replicates) was -0.3006 and -0.2823 and -0.2749 and -0.2593 and -0.2389 (2×) and -0.2354 and -0.2666 and -0.2203, the “Therapeutic index, IC50 non-cancerous cells / IC50 neoplastic cells” value ([2]; 3T3/HCT116) was 163.6 and the “Therapeutic index, IC50 non-cancerous cells / IC50 neoplastic cells” value ([2]; H9c2/HCT116) was 65.5. The “MTT, relative to control (0 = 100)” value ([2]; HCT116, 2 000 b/j, 0.1 nM, průměr (mean)) was 92.91, the “MTT, relative to control (0 = 100)” value ([2]; HCT116, 2 000 b/j, 0.1 nM, single experiment (date)) was 94.5188 and 92.721 and 92.454 and 82.0932 and 102.751 and the “MTT, relative to control (0 = 100)” value ([2]; HCT116, 2 000 b/j, 0.3 nM, průměr (mean)) was 88.66. The “MTT, relative to control (0 = 100)” value ([2]; HCT116, 2 000 b/j, 0.3 nM, single experiment (date)) was 92.7269 and 86.3547 and 90.8174 and 78.0265 and 95.3944, the “MTT, relative to control (0 = 100)” value ([2]; HCT116, 2 000 b/j, 1 nM, průměr (mean)) was 85.74 and the “MTT, relative to control (0 = 100)” value ([2]; HCT116, 2 000 b/j, 1 nM, single experiment (date)) was 90.3279 and 80.727 and 89.5958 and 78.1202 and 89.9198. For the same compound, the “MTT, relative to control (0 = 100)” value ([2]; HCT116, 2 000 b/j, 3 nM, průměr (mean)) was 82.64, the “MTT, relative to control (0 = 100)” value ([2]; HCT116, 2 000 b/j, 3 nM, single experiment (date)) was 85.5357 and 81.1307 and 88.4648 and 76.4907 and 81.5651 and the “MTT, relative to control (0 = 100)” value ([2]; HCT116, 2 000 b/j, 10 nM, průměr (mean)) was 43.25. The “MTT, relative to control (0 = 100)” value ([2]; HCT116, 2 000 b/j, 10 nM, single experiment (date)) was 46.7731 and 45.9842 and 47.2591 and 32.9751, the “MTT, relative to control (0 = 100)” value ([2]; HCT116, 2 000 b/j, 30 nM, průměr (mean)) was 5.63 and the “MTT, relative to control (0 = 100)” value ([2]; HCT116, 2 000 b/j, 100 nM, průměr (mean)) was 2.50. The IC50 ([2]; HCT116, 2 000 b/j, single experiment (date)) was 7.8 nM and 8.77 nM and 5.93 nM, the IC50 ([2]; Homo sapiens, HCT-116, 72 h, HCT116, 72 h/37°C, mean ± SD, n ≥ 4) was 8 ± 1 nM and the IC50 ([2]; Homo sapiens, HCT-116, HCT116, 2 000 b/j, průměr (mean)) was 7.6 nM. The IC50 ([2]; Homo sapiens, HCT-116, HCT116, 2 000 b/j, single experiment (date)) was 7.89 nM, the viability at 3 h, 100 nM ([3]; 3 hodiny) was 96.3% and the viability at 24 h, 100 nM ([3]; 24 hodin) was 52.8%. For the same compound, the viability at 72 h, 100 nM ([3]; 72 hodin) was 27.1%, the “Caspase 9 activity, % of the control” value ([4]; 24 h) was 125% and the “Caspase 9 activity, % of the control” value ([4]; 72 h) was 249%. The “kaspáza 9, % kontroly” value ([4]; 3 hodiny (3 h), % of control) was 104.85%, the “kaspáza 9, průměry (means of raw signal)” value ([4]; 3 hodiny (3 h)) was 3805.38 and the “kaspáza 9, raw signal” value ([4]; 3 hodiny) was 6578.5 and 2900.5 and 3521 and 2221.5. For the same compound, the “kaspáza 9, raw signal, průměry” value ([4]; 3 hodiny, mean) was 3805.38, the “kaspáza 9, % kontroly” value ([4]; 3 hodiny, mean, normalised to viability) was 111.23 % kontroly and the “kaspáza 9, signal / viabilita” value ([4]; 3 hodiny, normalised to viability) was 68.2861 and 30.1078 and 36.5487 and 23.0596. The “kaspáza 9, signal / viabilita, průměry” value ([4]; 3 hodiny, normalised to viability, mean) was 39.5005, the “kaspáza 9, % kontroly” value ([4]; 24 hodin (24 h), % of control) was 66.84% and the “kaspáza 9, průměry (means of raw signal)” value ([4]; 24 hodin (24 h)) was 2704. The “kaspáza 9, raw signal” value ([4]; 24 hodin) was 3466.5 and 1743.5 and 3244.5 and 2361.5, the “kaspáza 9, raw signal, průměry” value ([4]; 24 hodin, mean) was 2704 and the “kaspáza 9, % kontroly” value ([4]; 24 hodin, mean, normalised to viability) was 124.96 % kontroly. The “kaspáza 9, signal / viabilita” value ([4]; 24 hodin, normalised to viability) was 65.5914 and 32.9897 and 61.3908 and 44.6831, the “kaspáza 9, signal / viabilita, průměry” value ([4]; 24 hodin, normalised to viability, mean) was 51.1638 and the “kaspáza 9, % kontroly” value ([4]; 72 hodin (72 h), % of control) was 66.22%. The “kaspáza 9, průměry (means of raw signal)” value ([4]; 72 hodin (72 h)) was 14621.1, the “kaspáza 9, raw signal” value ([4]; 72 hodin) was 22930.5 and 14080 and 11064.5 and 10409.5 and the “kaspáza 9, raw signal, průměry” value ([4]; 72 hodin, mean) was 14621.1. The “kaspáza 9, % kontroly” value ([4]; 72 hodin, mean, normalised to viability) was 249.26 % kontroly, the “kaspáza 9, signal / viabilita” value ([4]; 72 hodin, normalised to viability) was 846.456 and 519.749 and 408.435 and 384.256 and the “kaspáza 9, signal / viabilita, průměry” value ([4]; 72 hodin, normalised to viability, mean) was 539.724.
